Laboratory results published in patent US20260027121A1, “LIGAND ACTING ON ADENOSINE RECEPTORS AND COMPOSITION COMPRISING SAME FOR PREVENTION, ALLEVIATION, OR TREATMENT OF OBESITYS” (FUTURE MEDICINE CO., LTD., priority 2022, published 2026).

Key:
[1] = test system: brown adipocytes; assay: Cytotoxicity / cell viability (EZ-CYTOX); assay type: cell-based, mouse; conditions: 24 hours
Protocol: (§1) Adipocyte precursor cells capable of differentiating into brown adipocytes were isolated from mouse brown adipose tissue. Cells were cultured in Dulbecco's modified Eagle's medium (Welgene, LM001-07) containing 10% fetal bovine serum (FBS, Gibco, 16000044) and 1% Penicillin Streptomycin (Welgene, LS202-02) at 37° C. in a humidified atmosphere with 5% CO2. When the cells reached about 100% confluency, the cells were exposed to a differentiation medium supplemented with 2.5 mM isobutyl methylxanthine (IBMX, Cayman, I5879), 0.125 mM indomethacin (Cayman, 70270), 1 μM dexamethasone (Cayman), 1 μg/mL insulin (Sigma, I9278), and 1 nM triiodothyronine (T3, Cayman, 6028) for 3 days for adipogenesis. Then, the cells were maintained in a growth medium containing 1 μg/mL insulin and 1 nM triiodothyronine (T3) for 3 days.
LJ-4378 is a dual-acting ligand with A2AAR agonist and A3AR antagonist activity. Cell viability was evaluated according to the manufacturer's instructions using EZ-CYTOX (DoGEN, EZ-3000). Absorbance was measured at 450 nm using a microplate reader (Thermo MULTISKAN GO, 8816-2015).

[2] = test system: brown adipocytes; assay: Lipolysis: glycerol and free fatty acid levels in conditioned medium; assay type: cell-based, mouse; conditions: 0.1 μM, 24 hours
Protocol: as §1
The free fatty acid (FFA) levels in the medium were measured using an NEFA reagent (WAKO, 436-91693) according to the manufacturer's product protocol.
Glycerol and free fatty acid (FFA) levels in a medium were measured using a glycerol reagent (Sigma Aldrich, F6428) and a NEFA reagent (WAKO, 436-91693) according to the manufacturer's product protocols.

[3] = test system: brown adipocytes; assay: Immunoblot of mitochondrial proteins and UCP1 in brown adipocytes; assay type: cell-based, mouse
Protocol: as §1
(§2) In the case of Western blots, the primary antibodies used for Western blots are summarized in [Table 2] above. An anti-rabbit horseradish peroxidase antibody (1:3000, Thermo Fisher, 31460) and an anti-mouse horseradish peroxidase antibody (1:3000, Jackson, 115-035-174) were used as secondary antibodies. All antibodies were diluted in a blocking buffer (5% skimmed milk or 5% bovine serum albumin in TBST). Western blot images were acquired using a Fusion Solo chemiluminescence imaging system (Vilber Lourmat) and analyzed with Evolution Capt software (version 17.03). NIH ImageJ software was used for quantification.

[4] = test system: brown adipocytes; assay: MitoTracker staining; assay type: cell-based, mouse; conditions: 0.1 μM, FIG. 4B
Protocol: The cells were exposed to MitoTracker™ Red CMXRos (1:3000, Invitrogen, M7512) at 37° C. for 15 minutes to stain mitochondria, and then fixed in 4% paraformaldehyde (PFA, Sigma, 158127). Images were acquired with an LSM800 confocal microscope (Zeiss, Germany) and analyzed with Zen software (version 3.0).

[5] = test system: brown adipocytes; assay: Oxygen consumption rate (XFp analyzer); assay type: cell-based, mouse; conditions: 0.1 μM, 24 hours
Protocol: Oxygen consumption rate (OCR) was measured using an XFp analyzer. Cells were cultured in XF DMEM basal medium (Agilent, 103575-100, pH 7.4) supplemented with 4 mM L-glutamine (Sigma, G8540) and 25 mM D-glucose (Sigma, G7021) at 37° C. The XFp Cell Mitochondrial Stress Test Kit (Agilent, 103010-100) was prepared and calculated sequentially with optimal final concentrations of 2.5 μM oligomycin, 0.5 μM FCCP and 0.5 μM rotenone/antimycin A and basal, maximal and proton leakage. Then, the OCR was normalized to protein concentration.

[6] = test system: CIDEA reporter mice; assay: qPCR of brown adipocyte markers in brown adipose tissue; assay type: in vivo, mouse; conditions: BAT, 1 mg kg-1/day, 10 days
Protocol: Mice were treated with vehicle (CTL), LJ-4378 (LJ, 1 mg kg-1/day), […] (CGS21680, 1 mg kg-1/day), or A3 antagonist (LJ-4433, 1 mg kg-1/day) for 10 days. (A-B) Representative bioluminescence in dorsal and lateral positions (n=3, mean±SEM, ** p<0.01, **** p<0.0001). (C) Representative ex vivo fluorescence image and quantification of fluorescence intensity of BAT and iWAT (n=3, mean±SEM, ** p<0.01, **** p<0.0001). (D) qPCR analysis of UCP1 and CIDEAM RNA expression levels of brown adipose tissue (BAT) (n=3, mean±SEM, * p<0.05, ** p<0.01, *** p<0.001).
qPCR analysis was performed to investigate the adenosine receptor expression levels in brown adipocytes differentiated from immortalized brown adipocyte precursor cells. Primers used for the qPCR analysis are listed in the following [Table 3].

[7] = test system: HFD-fed mice; assay: Immunoblot of BAT and iWAT of treated obese mice; assay type: in vivo, mouse; conditions: 1 mg kg-1/day, 10 days
Protocol: Mice fed a normal chow diet (NCD) and a high-fat diet (HFD) were treated with LJ-4378 (LJ, 1 mg kg-1/day) for 10 days. (A) Immunoblot analysis of BAT (n=6, mean±SEM, ** p<0.01, **** p<0.0001). (B) Immunoblot analysis in iWAT. Tubulin was a loading control. (n=6, mean±SEM, * p<0.05, *** p<0.001, **** p<0.0001).
For a diet-induced obesity model, mice were fed a high-fat diet (HFD)(Research Diets, D12492, protein: 20% kcal, carbohydrate: 20% kcal, and fat: 60% kcal) for 8 weeks. Then, LJ-4378 (1 mg kg-1) was injected into the mice once daily for 10 days.
as §2

CCCCC#Cc1nc(N)c2ncn([C@@H]3SC[C@@H](O)[C@H]3O)c2n1 [LJ-4378, 2-(6-amino-2-(hex-1-yn-1-yl)-9H-purin-9-yl)tetrahydrothiophene-3,4-diol]
concentrations with no effect on cell viability [1]: less than 100 μM
free fatty acid (FFA) level, fold increase ([2]; FIG. 2): 1.92±0.03 fold
glycerol level in conditioned medium, fold change ([2]; FIG. 3B): 1.61±0.07 fold
FFA level in conditioned medium, fold change ([2]; FIG. 3C): 1.59±0.1 fold
COXIV expression level, fold increase ([3]; 0.1 μM, 24 hours, FIG. 4A): 2.18±0.15 fold
UCP1 expression level, fold increase ([3]; 0.1 μM, 24 hours, FIG. 4A): 2.93±0.23 fold
COXIV, fold increase ([3]; 0.1 μM, 24 hours, FIG. 4D): 2.53±0.08 fold
MCAD, fold increase ([3]; 0.1 μM, 24 hours, FIG. 4D): 4.91±0.02 fold
UCP1, fold increase ([3]; 0.1 μM, 24 hours, FIG. 4D): 2.67±0.38 fold
ATP5A protein, fold increase ([3]; 10^−5, 48 hours): 3.72±0.04 fold
MCAD protein, fold increase ([3]; 10^−5, 48 hours): 2.13±0.03 fold
SDHB protein, fold increase ([3]; 10^−5, 48 hours): 3.71±0.25 fold
UQCRC2 protein, fold increase ([3]; 10^−5, 48 hours): 4.02±0.08 fold
ATP5A protein, fold increase ([3]; 10^−7, 48 hours): 3.94±0.06 fold
MCAD protein, fold increase ([3]; 10^−7, 48 hours): 1.79±0.09 fold
SDHB protein, fold increase ([3]; 10^−7, 48 hours): 3.41±0.47 fold
UQCRC2 protein, fold increase ([3]; 10^−7, 48 hours): 4.21±0.13 fold
ATP5A protein, fold increase ([3]; 10^−9 M, 48 hours): 3.51±0.05 fold
MCAD protein, fold increase ([3]; 10^−9 M, 48 hours): 1.79±0.03 fold
SDHB protein, fold increase ([3]; 10^−9 M, 48 hours): 3.47±0.18 fold
UQCRC2 protein, fold increase ([3]; 10^−9 M, 48 hours): 3.96 fold
ATP5A protein, fold increase ([3]; 10^−11 M, 48 hours): 2.20±0.08 fold
MCAD protein, fold increase ([3]; 10^−11 M, 48 hours): 1.53±0.03 fold
SDHB protein, fold increase ([3]; 10^−11 M, 48 hours): 1.87±0.28 fold
UQCRC2 protein, fold increase ([3]; 10^−11 M, 48 hours): 2.15±0.03 fold
mitochondrial membrane potential (MitoTracker staining), fold increase [4]: 2.12±0.06 fold
increase of OCR related to ATP production [5]: 29.3%
increase of OCR related to basal [5]: 30.5%
increase of OCR related to maximal [5]: 49.1%
Cidea mRNA level, fold increase [6]: 1.72±0.06 fold
Ucp1 mRNA level, fold increase [6]: 2.13±0.21 fold
COXIV upregulation in BAT [7]: 5.91±0.23 fold
COXIV upregulation in iWAT [7]: 1.24±0.04 fold
P-CREB upregulation in BAT [7]: 1.54±0.03 fold
P-CREB upregulation in iWAT [7]: 3.86±0.12 fold
P-HSL upregulation in BAT [7]: 2.31±0.18 fold
P-HSL upregulation in iWAT [7]: 1.72±0.04 fold
UCP1 upregulation in BAT [7]: 1.33±0.06 fold
UCP1 upregulation in iWAT [7]: 3.34±0.36 fold
